Values of other authors as cited in patent US20200368234A1, “PHOTORECEPTOR GENE MODULATOR PHOTOREGULIN 3 FOR TREATMENT OF RETINAL DISEASE” (University of Washington, priority 2017, published 2020).

How the values were obtained:
rod gene expression = settings: developing or mature retina treated with PR1; previously reported; cited from earlier work
Rho^P23H = Rho^P23H model of RP; previously reported; cited from earlier work
Pde6b^Rd1 = Pde6b^Rd1 model of RP; previously reported; cited from earlier work

## Cc1cc(C)cc(NC(=O)CCc2nc3sc4c(c3c(=O)[nH]2)CCCC4)c1 [PR1]
Rod gene expression
  rod and cone gene expression: reduces rod gene expression and increases the expression of some cone genes
Rho^P23H
  rod degeneration in vitro: slows rod degeneration in vitro
Pde6b^Rd1
  rod degeneration in vitro: slows rod degeneration in vitro
